Results published in US7217708B2, “3,7-Diazabicyclo [3.3.1] formulations as anti-arrhythmic compounds” (Astrazeneca AB, priority 2001, dated 2007).

**Q.** With CC(C)(C)OC(=O)NCCN1CC2CN(CCCNc3ccc(C#N)cc3)CC(C1)O2 [Example 23, Compound B] as the molecule, how does the melting point read?
**A.** Its melting point is 113.5 °C.
